The results in this text go back to patent US10442767B2 (priority 2012, dated 2019).

Data set [1] is described as follows: Pharmacokinetic study after single intravenous dose. The class given is in vivo, mice (CD-1). As to conditions: female, CD-1, mouse, mice, i.v. 0.75 mg/kg. The protocol: 39 mice (CD-1, 6-weeks old, female) were used in the study. […] The drugs were dissolved in PBS and administered via tail-vein injection to achieve a dose of 0.75 mg/kg of body weight. At specific times post injection (10 min, 30 min, 1 h, 2 h, 4 h and 24 h) blood and brain samples were collected. Blood samples were transferred into tubes containing 5% EDTA, stored on ice, and centrifuged (4° C., 1000 rpm, 15 min). Plasma (upper phase) was transferred to a new tube and stored at −80° C. for further analysis. Brain tissue samples were collected after intracardial perfusion of the mouse. Brain tissue samples were stored at −80° C. for further analysis. Drug quantification in plasma: Briefly, to a 1.5 mL Eppendorf tube containing 50 μl of plasma, 200 μl of ice-cold acetonitrile containing 1,000 ng/ml Progesterone (used as internal standard) was added in order to precipitate the proteins. The sample was vortexed, mixed and centrifuged at 4000×g for 10 min at 4° C. to remove precipitates. 140 μl supernatant was collected and transferred to a 500 μl 96-well polypropylene plate and covered using silicone plate mat. 40 μl of sample was injected in into LC-MS. Using the same sample preparation procedure 11 standard solutions ranging from 50 ng/mL to 100 μg/mL were prepared, analyzed by LC-MS and used as a calibration curve to correlate peak area of the samples to concentration. Drug quantification in brain: the mouse brain was weighted and 1 mL of water per 400 mg of tissue was added. The sample was homogenized using an electric tissue homogenizer. To a 1.5 mL Eppendorf tube containing 50 μl of homogenized sample, 200 μl of ice-cold acetonitrile containing 1000 ng/ml Demeclocycline (used as internal standard) was added in order to precipitate the proteins. The sample was vortexed, mixed and centrifuged at 4000×g for 10 min at 4° C. to remove precipitates. 140 μl supernatant was collected and transferred to a 500 μl 96-well polypropylene plate and covered using silicone plate mat. 40 μl of each sample was injected into LC-MS. Using the same sample preparation procedure 11 standard solutions ranging from 50 ng/mL to 100 μg/mL were prepared, analyzed by LC-MS and used as a calibration curve to correlate peak area of the samples to concentration.
(§1) The Hill equation used to fit the data from the voltage-clamp and the optic nerve experiments was as follows: y=y0+(yf−y0)*x^n/(k^n+x^n); where n refers to the Hill coefficient (typically 1±0.1) and k refers to EC50 or IC50. y0 and yf refers to the origin and final ordinate values and were fixed at 1±0.1 or 0±0.1 depending on the experiment. EC50=10^<log EC50>; where <log EC50>=average of log EC50 values from all experiments with the same drug. 95% C.I.=[Upper Limit . . . Lower Limit]; where U.L.=10^(log EC50+s.d.) and L.L.=10^(log EC50−s.d.). The half-life (t1/2) in the stability and pharmacokinetic experiments was calculated by fitting the data to the equation Ct=C0*exp(−k*t) where C0=initial concentration, Ct=concentration at time t, and k=ln 2/t1/2. Student t-test was used to compare results and P<0.05 was considered significant.

The subject of data set [2] is hypomyelinated optic nerves from Shiverer mice (shi^−/−). Nature of the data set: Compound action potential (CAP) of dissected hypomyelinated optic nerve. It is filed as cell-based, mouse. As to conditions: Mus musculus; hypomyelinated Shiverer optic nerve, 22 °C, Hill fit; read-out: half-maximal effective concentration (EC50) in enhancing the CAP. The method, then: In order to determine if the drugs could also be effective in enhancing compound action potentials (CAP), the effects of these compounds on the CAP of hypomyelinated optic nerves from Shiverer mice (shi^−/−) and control mice (shi^+/−, shi^+/+) were tested. Shiverer mice lack compact myelin in the CNS due to a null mutation of the myelin basic protein gene (MBP).
optic nerves were dissected from 12-16 week old Shiverer (shi^−/−) and control mice (shi^+/− and shi^+/+). Mice were euthanized by CO2 overdose and the optic nerves were quickly dissected between the eyeball and the optic chiasm. The nerves were incubated for 30 min at 37° C. in oxygenated (95% O2, 5% CO2) aCSF solution (126 mM NaCl, 3 mM KCl, 2 mM MgSO4, 26 mM NaHCO3, 2 mMCaCl2, 10 mM dextrose, pH 7.5) before the experiment.
compound action potentials (CAP) from hypomyelinated nerves (Shiverer mice, shi^−/−) and myelinated nerves (litermate controls, shi^+/− and shi^+/+) were recorded using suction electrodes as described by Stys et al. Briefly, the dissected optic nerve was placed inside a chamber containing oxygenated (5% CO2, 95% O2) aCSF (300 μL) between two suction electrodes (stimulus and recording electrodes) forming a tight seal on each end. Two additional electrodes were placed in the bath for reference. A supramaximal pulse (250 mV, 20 μs) was applied at the stimulating end of the nerve. The resulting CAP was amplified from the recording electrode using a high impedance low-noise amplifier (EG&G Princeton Applied Research Corporation) and filtered and sampled at 10-100 kHz. […] After each measurement the chamber was washed for 5 min (flow 1 mL/min) with oxygenated aCSF. The study was conducted at 22.2±1.3° C. to allow for slower conduction and the temperature was monitored throughout the experiment. CAP recordings were acquired with a SBC6711 board (Innovative Integration) controlled by in-house written software. Analysis of the traces was done using an in-house software. The half-maximal effective concentration (EC50) for each drug was calculated by plotting the final over initial amplitude vs. concentration and fitted to the Hill equation using Origin.
as §1

Data set [3] is described as follows: Parallel Artificial Membrane Permeability Assay (PAMPA). It is filed as in vitro ADME. The protocol:
In this experiment, the inventors included highly permeable verapamil and lowly permeable theophylline as controls.
Permeability studies were performed as previously described by Sugano, et al., 2011. A 96-well microplate (acceptor compartment) was filled with PBS containing 5% DMSO. A hydrophobic filter plate (donor compartment) was placed atop the buffer-filled plate and the filter surface was impregnated with 5 μL solution of porcine polar brain lipids (Avanti Lipids) in dodecane (1% w/v). 150 μL of the test compounds dissolved in PBS containing 5% DMSO (compound concentration 0.5 mM) was added to the donor compartment and covered. The only barrier between the two compartments was the artificial BBB membrane containing the porcine polar brain lipids. The whole system was incubated for several hours.
On the technique in general: The PAMPA barrier holds no transporters, so it reflects passive diffusion.

Like-named read-outs stand apart in the source and are kept apart here.

As usually defined, the half-life is the time in which the quantity being followed falls by half.

On to `Nc1ccncc1F` [3-F-4-AP, 3-fluoro-4-aminopyridine], for which, in data set [1] (brain and plasma, read-out: Cbrain/Cplasma (maximum in the brain over maximum in plasma)), the Kp was 0.214 ± 0.17. The half-life in data set [1] (brain, read-out: half-life in brain (converted)) is 85.8 min; in data set [1] (plasma, read-out: half-life in plasma (converted)) it was 20.4 min. Moreover, the EC50 in data set [2] amounted to 96 µM. Also, in data set [3], the “times more permeable than 4-AP” value is recorded as 6.6 times. In addition, the “Pe: permeability coefficient across artificial membrane” value in data set [3] (porcine polar brain lipids, 0.5 mM, 16 h, n=3) worked out at 15.6 ± 0.6 nm/s.
